Where “and” joins values, the source holds several entries; their conditions need not be identical. Equal entries are not always repeated. Where two headings read alike, the source gives them in different places.
How the values were obtained:
Aurora A = target: T1, Aurora A (Homo sapiens, UniProt O14965); test: Aurora Kinase A luminescent kinase assay (Kinase-Glo); format: biochemical; settings: IC50 values (concentration of a test compound at which activity of 50% of Aurora A is inhibited), GST-tAurora A (123-401aa) fusion protein
T1 construct: GST-tAurora A (123-401aa) fusion protein obtained above; made in house; host or cells: Sf9 insect cells (baculovirus, pBacPAK8)
T1 sequence (O14965 123-401): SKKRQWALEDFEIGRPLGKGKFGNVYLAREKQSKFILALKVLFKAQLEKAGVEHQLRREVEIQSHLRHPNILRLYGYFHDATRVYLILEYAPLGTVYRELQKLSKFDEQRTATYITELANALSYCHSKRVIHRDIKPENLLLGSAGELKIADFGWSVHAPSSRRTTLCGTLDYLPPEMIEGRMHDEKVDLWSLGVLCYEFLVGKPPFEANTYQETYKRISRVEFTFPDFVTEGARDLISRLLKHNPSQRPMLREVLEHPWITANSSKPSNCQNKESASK
Experimental: The Aurora A catalytic domain with an N-terminal GST tag was constructed in pBacPAK8 plasmid and expressed in sf9 cells. […] To concentrate GST-tAurora A, buffer was replaced with Tris buffer (100 mM Tris (pH 7.5), 300 mM NaCl, 1 mM EDTA, 4 mM DTT) using Amicon ultra-15 (MWCO:30K, Millipore) to 2.4 mg/ml. After the addition of equal volume of glycerol and 0.04% Triton X-100, the proteins were stored aliquoted at −80° C.
Briefly, a test compound, enzyme, substrate-tetra(LRRWSLG), DTT and ATP were dissolved in Aur buffer (50 mM Tris-HCl pH 7.4, 10 mM NaCl, 10 mM MgCl2, and 100 μg/ml BSA) individually before the assay. […] 5 μM ATP (5 μl), 1 mM DTT (5 μl) and 0.1 mM tetra(LRRWSLG) peptide substrate (5 μl) were added into the reactions of test compounds and GST-tAurora A. The reactions were incubated at 37° C. for 90 min. 50 μl of Kinase-Glo Plus Reagent (V3771, Promega) was added into the reactions, followed by the incubation at 25° C. for 20 min.

HCT-116 cells = test: HCT-116 cell viability, MTS assay; format: cell-based; settings: Homo sapiens, HCT-116, 96 h, read-out: IC50 values, HCT-116 cell viability
Experimental: HCT-116 cell viability was examined by the MTS assay (Promega, Madison, Wis., USA). 2000 HCT-116 cells in 100 μL McCoy's 5a medium were seeded in each well of a 96-well plate. After 96-h incubation with a test compound, the cells were incubated with 20 μL of a MTS/PMS mixture (MTS/PMS ratio: 20:1) for 2 h at 37° C. in a humidified incubator with 5% CO2 to allow viable cells to convert the tetrazolium salt (MTS) into formazan. The amount/concentration of formazan, which indicates the number of live cells, was determined by measuring the absorbance at 490 nm using a PerkinElmer Victor2 plate reader (PerkinElmer, Shelton, Conn., USA).

SMILES | IC50 (Aurora A) | IC50 (HCT-116 cells) [nM] | IC50 (HCT-116 cells; 96-h incubation, MTS) [nM]
COc1cc2ncnc(NCCc3ccc(NC(=O)Nc4ccccc4)cc3)c2cc1OC [Compound 1, 1-(4-(2-(6,7-dimethoxyquinazolin-4-ylamino)ethyl)phenyl)-3-phenylurea] | 1 to 50 nM and < 1000 nM | < 100 | 
COc1cc2ncnc(NCCc3ccc(NC(=O)Nc4cccnc4)cc3)c2cc1OC [Compound 2, 1-{4-[2-(6,7-Dimethoxy-quinazolin-4-ylamino)-ethyl]-phenyl}-3-pyridin-3-yl-urea] | < 1000 nM and 51 to 450 nM |  | 101 to 850
COc1cc2ncnc(NCCc3ccc(NC(=O)Nc4cccc(F)c4)cc3)c2cc1OC [Compound 5, 1-{4-[2-(6,7-Dimethoxy-quinazolin-4-ylamino)-ethyl]-phenyl}-3-(3-fluoro-phenyl)-urea] | < 1000 nM and 51 to 450 nM |  | < 100
O=C(Nc1ccccc1)Nc1ccc(CCNc2ncnc3cc(OCCCCl)ccc23)cc1 [Compound 6, 1-(4-{2-[7-(3-Chloro-propoxy)-quinazolin-4-ylamino]-ethyl}-phenyl)-3-phenyl-urea] | < 1000 nM and 51 to 450 nM |  | 
O=C(Nc1ccccc1)Nc1ccc(CCNc2ncnc3oc(-c4ccccc4)nc23)cc1 [Compound 7, 1-Phenyl-3-{4-[2-(2-phenyl-oxazolo[5,4-d]pyrimidin-7-ylamino)-ethyl]-phenyl}-urea] | < 1000 nM and 51 to 450 nM |  | 101 to 850
CCN(CCO)CCCOc1ccc2c(NCCc3ccc(NC(=O)Nc4ccccc4)cc3)ncnc2c1 [Compound 20] | < 1000 nM and 1 to 50 nM |  | < 100
CCN(CCO)CCCOc1ccc2c(NCCc3ccc(NC(=O)Nc4cccc(F)c4)cc3)ncnc2c1 [Compound 22] | < 1000 nM and 1 to 50 nM |  | 101 to 850
COc1cc2ncnc(NCCc3ncc(NC(=O)Nc4ccccc4)s3)c2cc1OC [Compound 47] | < 1000 nM and 1 to 50 nM |  | 101 to 850
COc1cc2ncnc(NCCc3cnc(NC(=O)Nc4cccc(F)c4)s3)c2cc1OC [Compound 56] | < 1000 nM and 51 to 450 nM |  | 101 to 850
CN(C)Cc1ccccc1NC(=O)Nc1ccc(CCNc2ncnc3oc(-c4ccccc4)nc23)cc1 [Compound 72] | < 1000 nM and 51 to 450 nM |  | 
O=C(Nc1ccccc1)Nc1ncc(CCNc2ncnc3oc(-c4ccccc4)nc23)s1 [Compound 81] | < 1000 nM and 51 to 450 nM |  | 
COc1cc2ncc(C#N)c(NCCc3ccc(NC(=O)Nc4ccccc4)cc3)c2cc1OC [Compound 140] | < 1000 nM and 51 to 450 nM |  | 
N#Cc1cnc2ccsc2c1NCCc1cnc(NC(=O)Nc2cccc(Cl)c2)s1 [Compound 190, 1-(3-chlorophenyl)-3-(5-(2-(6-cyanothieno[3,2-b]pyridin-7-ylamino)ethyl)thiazol-2-yl)urea] | < 1000 nM and 51 to 450 nM |  | 
COc1cc2ncnc(NCCc3ccc(NC(=O)Nc4ccccc4)cc3)c2cc1OC [Compound 201] | 1 to 50 nM and < 1000 nM |  | 
CN(C)CCCOc1ccc2c(NCCc3ccc(NC(=O)Nc4ccccc4)cc3)ncnc2c1 [Compound 202] | 51 to 450 nM and < 1000 nM |  | 
CCN(CCO)CCCOc1ccc2c(NCCc3ccc(NC(=O)Nc4ccccc4)cc3)ncnc2c1 [Compound 203] | 51 to 450 nM and < 1000 nM |  | 
COc1cc2ncnc(NCCc3ccc(NC(=O)Nc4cccc(C(F)(F)F)c4)cc3)c2cc1OC [Compound 204] | 1 to 50 nM and < 1000 nM |  | 101 to 850
COc1cccc(NC(=O)Nc2ccc(CCNc3ncnc4cc(OC)c(OC)cc34)cc2)c1 [Compound 205] | < 1000 nM and 51 to 450 nM |  | 101 to 850
COc1ccc(-c2nc3c(NCCc4ccc(NC(=O)Nc5ccccc5)cc4)ncnc3o2)cc1 [Compound 206] | < 1000 nM and 51 to 450 nM |  | 101 to 850
CN(C)CCCOc1ccc2c(NCCc3ccc(NC(=O)Nc4cccc(F)c4)cc3)ncnc2c1 [Compound 207] | < 1000 nM and 51 to 450 nM |  | 101 to 850
CN(C)CCCOc1ccc2c(NCCc3ccc(NC(=O)Nc4cccc(F)c4)cc3)ncnc2c1 [Compound 208] | < 1000 nM and 51 to 450 nM |  | 
CCN(CCO)CCCOc1ccc2c(NCCc3ccc(NC(=O)Nc4cccc(F)c4)cc3)ncnc2c1 [Compound 209] | 1 to 50 nM and < 1000 nM |  | 
COc1cc2ncnc(NCCc3ccc(NC(=O)Nc4ccc(F)cc4)cc3)c2cc1OC [Compound 210] | 1 to 50 nM and < 1000 nM |  | < 100
COc1cc2ncnc(NCCc3ccc(NC(=O)Nc4ccc(F)cc4)cc3)c2cc1OC [Compound 211] | 1 to 50 nM and < 1000 nM |  | 
COc1ccc2c(NCCc3ccc(NC(=O)Nc4ccccc4)cc3)c(C#N)cnc2c1 [Compound 212] | 51 to 450 nM and < 1000 nM |  | 101 to 850
COc1ccc2c(NCCc3ccc(NC(=O)Nc4cccc(Cl)c4)cc3)c(C#N)cnc2c1 [Compound 213] |  |  | 101 to 850
O=C(Nc1ccccc1)Nc1ccc(CCNc2ncnc3oc(-c4ccc(O)cc4)nc23)cc1 [Compound 220] | 1 to 50 nM and < 1000 nM |  | 101 to 850

SMILES | IC50 (Aurora A) | IC50 (HCT-116 cells) [nM] | IC50 (HCT-116 cells; 96-h incubation, MTS) [nM]
O=C(Nc1ccccc1)Nc1ccc(CCNc2ncnc3oc(-c4cccnc4)nc23)cc1 [Compound 222] | 51 to 450 nM and < 1000 nM |  | 101 to 850
COc1cc2ncnc(NCCc3ccc(Nc4nc5ccccc5[nH]4)cc3)c2cc1OC [Compound 224] | 1 to 50 nM and < 1000 nM |  | 101 to 850
COc1cc2ncc(C#N)c(NCCc3ccc(NC(=O)Nc4cccc(F)c4)cc3)c2cc1OC [Compound 225] | 51 to 450 nM and < 1000 nM |  | 101 to 850
COc1cc2ncc(C#N)c(NCCc3ccc(NC(=O)NC4CC4)cc3)c2cc1OC [Compound 226] | 51 to 450 nM and < 1000 nM |  | 
COc1cc2ncc(C#N)c(NCCc3cnc(NC(=O)Nc4ccccc4)s3)c2cc1OC [Compound 227] | 51 to 450 nM and < 1000 nM |  | 
COc1cc2ncnc(NCCc3cnc(NC(=O)Nc4cccc(Cl)c4)s3)c2cc1OC [Compound 228] | 1 to 50 nM and < 1000 nM |  | < 100
N#Cc1cnc2cc(O)ccc2c1NCCc1ccc(NC(=O)Nc2ccccc2)cc1 [Compound 229] |  |  | 101 to 850
COc1cc2ncnc(NCCc3ccc(NC(=O)NC4CC4)cc3)c2cc1OC [Compound 230] | < 1000 nM |  | 
COc1ccc2ncc(C#N)c(NCCc3ccc(NC(=O)Nc4ccccc4)cc3)c2c1 [Compound 231] | 51 to 450 nM and < 1000 nM |  | 101 to 850
COc1cc2ncnc(OCCc3ccc(NC(=O)Nc4ccccc4)cc3)c2cc1OC [Compound 232] | 1 to 50 nM and < 1000 nM |  | 101 to 850
CN(C)c1ccc2c(NCCc3ccc(NC(=O)Nc4ccccc4)cc3)ncnc2c1 [Compound 233] | 51 to 450 nM and < 1000 nM |  | < 100
O=C(Nc1ccccc1)Nc1ccc(CCNc2ncnc3oc(-c4ccncc4)nc23)cc1 [Compound 235] | 1 to 50 nM and < 1000 nM |  | 
O=C(Nc1ccccc1)Nc1ccc(CCNc2ncnc3oc(-c4ccncc4)nc23)cc1 [Compound 236] | 51 to 450 nM and < 1000 nM |  | 101 to 850
O=C(Nc1ccccc1)Nc1ccc(CCNc2ncnc3oc(-c4ccccn4)nc23)cc1 [Compound 237] | 1 to 50 nM and < 1000 nM |  | 101 to 850
COc1cc2ncnc(N(C)CCc3ccc(NC(=O)Nc4ccccc4)cc3)c2cc1OC [Compound 240] | 51 to 450 nM and < 1000 nM |  | < 100
O=C(Nc1cccc(F)c1)Nc1ncc(CCNc2ncnc3oc(-c4ccccc4)nc23)s1 [Compound 241] | 51 to 450 nM and < 1000 nM |  | 
O=C(Nc1cccc(Cl)c1)Nc1ncc(CCNc2ncnc3oc(-c4ccccc4)nc23)s1 [Compound 242] | 51 to 450 nM and < 1000 nM |  | 
COc1cc2ncnc(NCCc3ccc(NC(=O)Nc4cc(F)cc(F)c4)cc3)c2cc1OC [Compound 244] | 1 to 50 nM and < 1000 nM |  | < 100
COc1cc2ncnc(NCCc3ccc(NC(=O)Nc4cc(F)cc(F)c4)cc3)c2cc1OC [Compound 245] | 1 to 50 nM and < 1000 nM |  | 
COc1cc2ncnc(NCCc3ccc(NC(=O)Nc4ccccc4F)cc3)c2cc1OC [Compound 246] | 51 to 450 nM and < 1000 nM |  | 101 to 850
COc1cc2ncnc(NCCc3ccc(NC(=O)Nc4ccc(F)c(F)c4)cc3)c2cc1OC [Compound 247] | 1 to 50 nM and < 1000 nM |  | 101 to 850
O=C(Nc1ccccc1)Nc1ccc(CCNc2ncnc3ccccc23)cc1 [Compound 248] | 51 to 450 nM and < 1000 nM | < 100 | 
O=C(Nc1ccccc1)Nc1ccc(CCNc2ncnc3ccccc23)cc1 [Compound 249] | 1 to 50 nM and < 1000 nM |  | 
O=C(Nc1ccc(CCNc2ncnc3oc(-c4ccncc4)nc23)cc1)Nc1cccc(F)c1 [Compound 250] | 51 to 450 nM and < 1000 nM |  | 101 to 850
O=C(Nc1ccccc1)Nc1ccc(CCNc2ncnc3cc(N4CCOCC4)ccc23)cc1 [Compound 251] | 1 to 50 nM and < 1000 nM |  | < 100
COc1cc2ncnc(NCCc3cnc(NC(=O)Nc4cccc(Br)c4)s3)c2cc1OC [Compound 252] | 1 to 50 nM and < 1000 nM |  | 101 to 850
